Laboratory results taken from patent US9765105B2, “Macrolide compound” (Pulike Biological Engineering, Inc., priority 2013, dated 2017).

Key:
Experiment in all cases: in vitro susceptibility, MIC by mini broth dilution
Type in all cases: cell-based
[1] = test system: Actinobacillus pleuropneumoniae CVCC262; conditions: strain CVCC262
Experimental: (§1) in vitro tests of susceptibility of the compounds according to the present disclosure against bacterial strains commonly used in laboratories. In accordance with the Performance Standards for Antimicrobial Disk Susceptibility Tests: Approved Standard published by the US National Committee for Clinical Laboratory Standards, the antibacterial activities of compounds prepared according to examples 5 to 187 were tested. The MICs (minimum inhibitory concentration) of the medicaments prepared according to the examples on the following bacterial strains were measured through mini broth dilution technique. Staphylococcus aureus CVCC26003, Streptococcus equines CVCC556. Actinobacillus pleuropneumoniae CVCC262, Haemophilus parasuis, and Pasteurella multocida CVCC399, which were purchased from the Control Institute of Veterinary Bioproducts and Pharmaceuticals, China. 4.1.2 Culture Media for the Rest Four Bacterial Strains. Liquid culture medium: […] Solid culture medium: […] The strains were taken out of a refrigerator at −20° C. to be revived, and were spreaded by streaking on the solid culture medium with an inoculating loop. The inoculated culture medium was cultured at 35° C. in a constant temperature incubator for 20 h. […] were selected from a well-grown culture plate and streaked on the solid culture medium. The inoculated culture medium was cultured at 35° C. in the constant temperature incubator for 20 h. […] A 96-well plate was used, and 100 μl of DMSO was added into each of wells 2 to 11, and 200 μl of ready-prepared medicament solution was added into the 1st well, 100 μl of the medicament solution was extracted from the 1st well and added into the 2nd well. Double dilution was performed until the 11th well, thereby forming 11 gradients. In this case, compound of parent plate was prepared. 3 μl of double diluted medicament solution was extracted with a 12-channel pipettor and added into wells 1-11 of a new disposable 96-well culture plate. The 12th well thereof is a control well. For each medicament, there are two adjacent rows which are parallel. The transferred compound plate was reserved for later use. […] The dilution ratio was recorded, and the bacterial liquid for the tests was diluted according to the recorded dilution ratio. Subsequently, the bacterial suspension and the liquid culture medium were diluted in the proportion of 1:200. The diluted solution was reserved for later use.

Haemophilus parasuis = test system: Haemophilus parasuis
Experimental: as §1

[2] = test system: Streptococcus equines CVCC556; conditions: strain CVCC556
Experimental: as §1

[3] = test system: Pasteurella multocida CVCC399; conditions: strain CVCC399
Experimental: as §1

[4] = test system: Staphylococcus aureus CVCC26003; conditions: strain CVCC26003
Experimental: in vitro tests of susceptibility of the compounds according to the present disclosure against bacterial strains commonly used in laboratories. In accordance with the Performance Standards for Antimicrobial Disk Susceptibility Tests: Approved Standard published by the US National Committee for Clinical Laboratory Standards, the antibacterial activities of compounds prepared according to examples 5 to 187 were tested. The MICs (minimum inhibitory concentration) of the medicaments prepared according to the examples on the following bacterial strains were measured through mini broth dilution technique. Staphylococcus aureus CVCC26003, Streptococcus equines CVCC556. Actinobacillus pleuropneumoniae CVCC262, Haemophilus parasuis, and Pasteurella multocida CVCC399, which were purchased from the Control Institute of Veterinary Bioproducts and Pharmaceuticals, China. 4.1.1 Culture Medium for Staphylococcus aureus CVCC26003 Liquid culture medium: CAMHB. […] Solid culture medium: NINA prepared according to the specification of the final product. The strains were taken out of a refrigerator at −20° C. to be revived, and were spreaded by streaking on the solid culture medium with an inoculating loop. The inoculated culture medium was cultured at 35° C. in a constant temperature incubator for 20 h. […] were selected from a well-grown culture plate and streaked on the solid culture medium. The inoculated culture medium was cultured at 35° C. in the constant temperature incubator for 20 h. […] A 96-well plate was used, and 100 μl of DMSO was added into each of wells 2 to 11, and 200 μl of ready-prepared medicament solution was added into the 1st well, 100 μl of the medicament solution was extracted from the 1st well and added into the 2nd well. Double dilution was performed until the 11th well, thereby forming 11 gradients. In this case, compound of parent plate was prepared. 3 μl of double diluted medicament solution was extracted with a 12-channel pipettor and added into wells 1-11 of a new disposable 96-well culture plate. The 12th well thereof is a control well. For each medicament, there are two adjacent rows which are parallel. The transferred compound plate was reserved for later use. […] The dilution ratio was recorded, and the bacterial liquid for the tests was diluted according to the recorded dilution ratio. Subsequently, the bacterial suspension and the liquid culture medium were diluted in the proportion of 1:200. The diluted solution was reserved for later use.

| Compound | MIC values, Actinobacillus pleuropneumoniae CVCC262 [1] [ug/mi] | MIC values, Haemophilus parasuis (Haemophilus parasuis) | MIC values, Streptococcus equines CVCC556 [2] | MIC values, Pasteurella multocida CVCC399 [3] | MIC values, Staphylococcus aureus CVCC26003 [4] [ug/mi] |
| --- | --- | --- | --- | --- | --- |
| CCCN1C[C@H](C)[C@@H](O)[C@](C)(O)[C@@H](CC)OC(=O)[C@H](C)[C@@H](O[C@H]2C[C@@](C)(OC)[C@](O)(CN(C)CCO)[C@H](C)O2)[C@H](C)[C@@H](O[C@@H]2O[C@H](C)C[C@H](N(C)C)[C@H]2O)[C@](C)(O)C[C@H]1C [syzx-239] | 4 | 2 ug/mi | 0.25 ug/mi | 8 ug/mi | 4 |
| CCCN1C[C@H](C)[C@@H](O)[C@](C)(O)[C@@H](CC)OC(=O)[C@H](C)[C@@H](O[C@H]2C[C@@](C)(OC)[C@](O)(CNC(CC)C(=O)O)[C@H](C)O2)[C@H](C)[C@@H](O[C@@H]2O[C@H](C)C[C@H](N(C)C)[C@H]2O)[C@](C)(O)C[C@H]1C (some centres unmarked) [syzx-141] | 0.25 | 0.25 ug/mi | 0.25 ug/mi | 1 ug/mi | 0.25 |
| CCCN1C[C@H](C)[C@@H](O)[C@](C)(O)[C@@H](CC)OC(=O)[C@H](C)[C@@H](O[C@H]2C[C@@](C)(OC)[C@](O)(CNCCCCO)[C@H](C)O2)[C@H](C)[C@@H](O[C@@H]2O[C@H](C)C[C@H](N(C)C)[C@H]2O)[C@](C)(O)C[C@H]1C [syzx-133] | 1 | 0.5 ug/mi | 0.5 ug/mi | 2 ug/mi | 1 |
| CC[C@H]1OC(=O)[C@H](C)[C@@H](O[C@H]2C[C@@](C)(OC)[C@](O)(CNOCc3ccccc3)[C@H](C)O2)[C@H](C)[C@@H](O[C@@H]2O[C@H](C)C[C@H](N(C)C)[C@H]2O)[C@](C)(O)C[C@@H](C)NC[C@H](C)[C@@H](O)[C@]1(C)O [syzx-82, (2R,3S,4R,5S,8R,10R,11R,12S,13S,14R)-13-[(2,6-dideoxy-3-C-methyl-3-O-methyl-4-C-[(benzyloxy-amino)-methyl]-α-L-ribopyranosyl)oxy]-2-ethyl-3,4,10-trihydroxy-3,5,8,10,12,14-hexamethyl-11-[[3,4,6-trideoxy-3-(dimethylamino)-β-D-xylo-hexopyranosy]oxy]-1-oxa-7-azacyclopentadecan-15-one] | 16 | ≦0.25 ug/mi | ≦0.25 ug/mi | 1 ug/mi | 0.5 |
| CC[C@H]1OC(=O)[C@H](C)[C@@H](O[C@H]2C[C@@](C)(OC)[C@](O)(CNC(=O)C(F)(F)F)[C@H](C)O2)[C@H](C)[C@@H](O[C@@H]2O[C@H](C)C[C@H](N(C)C)[C@H]2O)[C@](C)(O)C[C@@H](C)NC[C@H](C)[C@@H](O)[C@]1(C)O [syzx-37, (2R,3S,4R,5S,8R,10R,11R,12S,13S,14R)-13-[(2,6-dideoxy-3-C-methyl-3-O-methyl-4-C-[[2,2,2-trifluoroacetyl-amino]-methyl]-α-L-ribopyranosyl)oxy]-2-ethyl-3,4,10-trihydroxy-3,5,8,10,12,14-hexamethyl-11-[[3,4,6-trideoxy-3-(dimethylamino)-β-D-xylo-hexopyranosy]oxy]-1-oxa-7-azacyclopentadecan-15-one] | 32 | 0.5 ug/mi | ≦0.25 ug/mi | 1 ug/mi | 0.5 |
| CC[C@H]1OC(=O)[C@H](C)[C@@H](O[C@H]2C[C@@](C)(OC)[C@](O)(CNCc3ccco3)[C@H](C)O2)[C@H](C)[C@@H](O[C@@H]2O[C@H](C)C[C@H](N(C)C)[C@H]2O)[C@](C)(O)C[C@@H](C)NC[C@H](C)[C@@H](O)[C@]1(C)O [syzx-71, (2R,3S,4R,5S,8R,10R,11R,12S,13S,14R)-13-[(2,6-dideoxy-3-C-methyl-3-O-methyl-4-C-[(2-furfuryl-amino)-methyl]-α-L-ribopyranosyl)oxy]-2-ethyl-3,4,10-trihydroxy-3,5,8,10,12,14-hexamethyl-11-[[3,4,6-trideoxy-3-(dimethylamino)-β-D-xylo-hexopyranosy]oxy]-1-oxa-7-azacyclopentadecan-15-one] | 16 | 8 ug/mi | ≦0.25 ug/mi | ≦0.25 ug/mi | 8 |
| CCCN1CC(C)C(O)C(C)(O)C(CC)OC(=O)C(C)C(OC2CC(C)(OC)C(O)(CNNc3ccc(F)cc3)C(C)O2)C(C)C(OC2OC(C)CC(N(C)C)C2O)C(C)(O)CC1C (centres unmarked) [syzx-181] | 0.5 | 0.25 ug/mi | 0.25 ug/mi | 1 ug/mi | 0.25 |
| CCCN1C[C@H](C)[C@@H](O)[C@](C)(O)[C@@H](CC)OC(=O)[C@H](C)[C@@H](O[C@H]2C[C@@](C)(OC)[C@](O)(CNc3ccc(I)cc3)[C@H](C)O2)[C@H](C)[C@@H](O[C@@H]2O[C@H](C)C[C@H](N(C)C)[C@H]2O)[C@](C)(O)C[C@H]1C [syzx-227] | 4 | 4 ug/mi | 0.5 ug/mi | 8 ug/mi | 2 |
| CC[C@H]1OC(=O)[C@H](C)[C@@H](O[C@H]2C[C@@](C)(OC)[C@](O)(CNCc3ccccc3OC)[C@H](C)O2)[C@H](C)[C@@H](O[C@@H]2O[C@H](C)C[C@H](N(C)C)[C@H]2O)[C@](C)(O)C[C@@H](C)NC[C@H](C)[C@@H](O)[C@]1(C)O [syzx-27] | 4 | ≦0.25 ug/mi | ≦0.25 ug/mi | 0.5 ug/mi | 0.5 |
| (2R,3S,4R,5S,8R,10R,11R,12S,13S,14R)-13-[(2,6-dideoxy-3-C-methyl-3-O-methyl-4-C-[(thienylformyloxymethyl-2-amino)-methyl]-α-L-ribopyranosyl)oxy]-2-ethyl-3,4,10-trihydroxy-3,5,8,10,12,14-hexamethyl-11-[[3,4,6-trideoxy-3-(dimethylamino)-β-D-xylo-hexopyranosy]oxy]-1-oxa-7-azacyclopentadecan-15-one [syzx-77] | 16 | 0.25 ug/mi | 0.5 ug/mi | 0.5 ug/mi | 0.25 |
